Holding throughout (format): cell-based
For experiment [1], the target named is T1, von Hippel-Lindau disease tumor suppressor/Bromodomain-containing protein 4 (Homo sapiens, UniProt O60885+P40337). Put plainly: PROTAC activity at VHL/BRD4 in HEK293 cells assessed as induction of BRD4 degradation by measuring degradation rate at 10 uM measured every 15 mins for 24 hrs in presence of VHL based ligand (2S,4R)-1-((S)-2-(2,3-dihydroxybenzamido)-3,3-dimethylbutanoyl)-4-hydroxy-N-(4-(4-methylthiazol-5-yl)benzyl)pyrrolidine-2-carboxamide by HiBiT based Combinatorial Ubiquitination Real-time PROteolysis analysis. For orientation: With HiBiT, luminescence reflects the tagged protein that the partner subunit can reach.

Experiment [2] addresses T1, von Hippel-Lindau disease tumor suppressor/Bromodomain-containing protein 4. The experiment in a line: PROTAC activity at BRD4/VHL in human MCF7 cells assessed as reduction in BRD4 level incubated for 24 hrs in presence of BRD4 based ligand ((4S)-6-(4-chlorophenyl)-4-(2-(ethylamino)-2-oxoethyl)-1-methyl4Hbenzo[f][1,2,4]triazolo [4,3-a][1,4]diazepin-8-yl)boronic acid by Western blot based Combinatorial Ubiquitination Real-time PROteolysis analysis. (In general: Immunoblotting shows a protein as a band on a membrane.)

The target is the same in experiment [3]. Put plainly: PROTAC activity at VHL/BRD4 in HEK293 cells assessed as induction of BRD4 degradation by measuring degradation rate at 1 uM measured every 15 mins for 24 hrs in presence of VHL based ligand (2S,4R)-1-((S)-2-(2,3-dihydroxybenzamido)-3,3-dimethylbutanoyl)-4-hydroxy-N-(4-(4-methylthiazol-5-yl)benzyl)pyrrolidine-2-carboxamide by HiBiT based Combinatorial Ubiquitination Real-time PROteolysis analysis.

Experiment [4] shares this target. The experiment in a line: PROTAC activity at BRD4/VHL in human MCF7 cells assessed as induction of BRD4 degradation by measuring residual activity at 3 uM incubated for 24 hrs in presence of 1 uM VHL based ligand (2S,4R)-1-((S)-2-(2,3-dihydroxybenzamido)-3,3-dimethylbutanoyl)-4-hydroxy-N-(4-(4-methylthiazol-5-yl)benzyl)pyrrolidine-2-carboxamide by Western blot based Combinatorial Ubiquitination Real-time PROteolysis analysis.

Experiment [5] shares this target. The experiment in a line: PROTAC activity at BRD4/VHL in human MCF7 cells assessed as induction of BRD4 degradation by measuring residual activity at 10 uM incubated for 24 hrs in presence of VHL based ligand (2S,4R)-1-((S)-2-(2,3-dihydroxybenzamido)-3,3-dimethylbutanoyl)-4-hydroxy-N-(4-(4-methylthiazol-5-yl)benzyl)pyrrolidine-2-carboxamide by Western blot based Combinatorial Ubiquitination Real-time PROteolysis analysis.

Experiment [6] has the same target. Put plainly: PROTAC activity at BRD4/VHL in human MCF7 cells assessed as induction of BRD4 degradation by measuring residual activity at 1 uM incubated for 24 hrs in presence of 100 nM BRD4 based ligand ((4S)-6-(4-chlorophenyl)-4-(2-(ethylamino)-2-oxoethyl)-1-methyl4Hbenzo[f][1,2,4]triazolo [4,3-a][1,4]diazepin-8-yl)boronic acid by Western blot based Combinatorial Ubiquitination Real-time PROteolysis analysis.

For experiment [7] the target is unchanged. Put plainly: PROTAC activity at BRD4/VHL in human MCF7 cells assessed as induction of BRD4 degradation by measuring residual activity at 100 nM incubated for 24 hrs in presence of BRD4 based ligand ((4S)-6-(4-chlorophenyl)-4-(2-(ethylamino)-2-oxoethyl)-1-methyl4Hbenzo[f][1,2,4]triazolo [4,3-a][1,4]diazepin-8-yl)boronic acid by Western blot based Combinatorial Ubiquitination Real-time PROteolysis analysis.

For experiment [8] the target is unchanged. Put plainly: PROTAC activity at VHL/BRD4 in HEK293 cells assessed as induction of BRD4 degradation by measuring Tmax at 0.3 uM measured every 15 mins for 24 hrs in presence of BRD4 based ligand ((4S)-6-(4-chlorophenyl)-4-(2-(ethylamino)-2-oxoethyl)-1-methyl4Hbenzo[f][1,2,4]triazolo [4,3-a][1,4]diazepin-8-yl)boronic acid by HiBiT based Combinatorial Ubiquitination Real-time PROteolysis analysis.

For experiment [9] the target is unchanged. Put plainly: PROTAC activity at BRD4/VHL in human MCF7 cells assessed as induction of BRD4 degradation by measuring residual activity at 10 uM incubated for 24 hrs in presence of 300 nM BRD4 based ligand ((4S)-6-(4-chlorophenyl)-4-(2-(ethylamino)-2-oxoethyl)-1-methyl4Hbenzo[f][1,2,4]triazolo [4,3-a][1,4]diazepin-8-yl)boronic acid by Western blot based Combinatorial Ubiquitination Real-time PROteolysis analysis.

For experiment [10] the target is unchanged. Put plainly: PROTAC activity at BRD4/VHL in human MCF7 cells assessed as induction of BRD4 degradation by measuring residual activity at 300 nM incubated for 24 hrs in presence of 100 nM BRD4 based ligand ((4S)-6-(4-chlorophenyl)-4-(2-(ethylamino)-2-oxoethyl)-1-methyl4Hbenzo[f][1,2,4]triazolo [4,3-a][1,4]diazepin-8-yl)boronic acid by Western blot based Combinatorial Ubiquitination Real-time PROteolysis analysis.

The target is the same in experiment [11]. The experiment in a line: PROTAC activity at VHL/BRD4 in human MCF7 cells assessed as induction of BRD4 degradation at 10 uM measured at 4 hrs in presence of BRD4 based ligand ((4S)-6-(4-chlorophenyl)-4-(2-(ethylamino)-2-oxoethyl)-1-methyl4Hbenzo[f][1,2,4]triazolo [4,3-a][1,4]diazepin-8-yl)boronic acid by Western blot based Combinatorial Ubiquitination Real-time PROteolysis analysis.

For experiment [12] the target is unchanged. The experiment in a line: PROTAC activity at BRD4/VHL in human MCF7 cells assessed as induction of BRD4 degradation by measuring residual activity at 3 uM incubated for 24 hrs in presence of 10 uM BRD4 based ligand ((4S)-6-(4-chlorophenyl)-4-(2-(ethylamino)-2-oxoethyl)-1-methyl4Hbenzo[f][1,2,4]triazolo [4,3-a][1,4]diazepin-8-yl)boronic acid by Western blot based Combinatorial Ubiquitination Real-time PROteolysis analysis.

For experiment [13] the target is unchanged. The experiment in a line: PROTAC activity at VHL/BRD4 in HEK293 cells assessed as induction of BRD4 degradation by measuring degradation rate at 10 uM measured every 15 mins for 24 hrs in presence of BRD4 based ligand ((4S)-6-(4-chlorophenyl)-4-(2-(ethylamino)-2-oxoethyl)-1-methyl4Hbenzo[f][1,2,4]triazolo [4,3-a][1,4]diazepin-8-yl)boronic acid by HiBiT based Combinatorial Ubiquitination Real-time PROteolysis analysis.

Experiment [14] shares this target. Put plainly: PROTAC activity at VHL/BRD4 in HEK293 cells assessed as induction of BRD4 degradation by measuring Tmax at 3 uM measured every 15 mins for 24 hrs in presence of BRD4 based ligand ((4S)-6-(4-chlorophenyl)-4-(2-(ethylamino)-2-oxoethyl)-1-methyl4Hbenzo[f][1,2,4]triazolo [4,3-a][1,4]diazepin-8-yl)boronic acid by HiBiT based Combinatorial Ubiquitination Real-time PROteolysis analysis.

Experiment [15] has the same target. The experiment in a line: PROTAC activity at VHL/BRD4 in human MCF7 cells assessed as induction of BRD4 degradation at 10 uM incubated for 24 hrs in presence of BRD4 ligand based ((4S)-6-(4-chlorophenyl)-4-(2-(ethylamino)-2-oxoethyl)-1-methyl4Hbenzo[f][1,2,4]triazolo [4,3-a][1,4]diazepin-8-yl)boronic acid by Western blot based Combinatorial Ubiquitination Real-time PROteolysis analysis.

Active and inactive are the calls of the source. No cut-off for these calls is given here.

T1 sequence (P40337 whole entry, looked up, other chains not shown): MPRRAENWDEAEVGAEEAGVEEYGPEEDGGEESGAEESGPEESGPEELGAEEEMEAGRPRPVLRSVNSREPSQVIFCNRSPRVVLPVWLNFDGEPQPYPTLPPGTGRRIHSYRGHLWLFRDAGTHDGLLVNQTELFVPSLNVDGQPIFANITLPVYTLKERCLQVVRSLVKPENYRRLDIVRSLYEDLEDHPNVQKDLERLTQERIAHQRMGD

On to `CCNC(=O)C[C@@H]1N=C(c2ccc(Cl)cc2)c2cc(B(O)O)ccc2-n2c(C)nnc21`, for which the Activity in [1] stood at 4.18 h⁻¹; in experiment [3], 0.548 h⁻¹; in experiment [4] it was 32%; in [5], 95%; in experiment [6], 56%. Moreover, the result in experiment [2] was inactive.
In the case of `Cc1ncsc1-c1ccc(CNC(=O)[C@@H]2C[C@@H](O)CN2C(=O)[C@@H](NC(=O)c2cccc(O)c2O)C(C)(C)C)cc1`, the Activity in experiment [7] is 89%; in experiment [9], 48%; in experiment [10], 72%; in [11], 100%; in [12] it was 16%; in experiment [13], 4.18 h⁻¹. The results for the Tmax in [8] and in experiment [14] were 7.75 h and 18 h, respectively. In addition, the result in experiment [15] was Active.

The values are drawn from ChEMBL document CHEMBL5543126, “Combinatorial Ubiquitination REal-time PROteolysis (CURE-PROs): A Modular Platform for Generating Reversible, Self-Assembling Bifunctional Targeted Degraders” (J Med Chem, 2024).
